Measured values reported in DBAASP.
≈ marks a conversion by molar mass, not a printed value. Values belong to the compound of their own block, whether it stands above or below them.

Key:
Assay in all cases: ≥ marks a high value that may be exact or a test limit, other limits are often not marked, values filed in µg/mL are converted to µM
[1] = system: Escherichia coli ATCC 25922
[2] = system: Staphylococcus aureus NCTC 8325
[3] = system: Staphylococcus aureus ATCC 29213
[4] = system: Acinetobacter baumannii
[5] = system: Pseudomonas aeruginosa ATCC 27853
[6] = system: Staphylococcus aureus MR
[7] = system: Acinetobacter baumannii ATCC 19606
[8] = system: Staphylococcus aureus ATCC 25923
[9] = system: Candida albicans ATCC 90028
[10] = system: Klebsiella pneumoniae ATCC 13883
[11] = system: Pseudomonas aeruginosa PAO1
[12] = system: Staphylococcus aureus USA 300
[13] = system: Bacillus subtilis ATCC 6051
[14] = system: Escherichia coli
[15] = system: Enterococcus faecalis ATCC 29212
[16] = system: Salmonella enterica subsp. enterica serovar Typhimurium ATCC 14028
[17] = system: Bacillus subtilis
[18] = system: Streptococcus pyogenes ATCC 19615

SMILES: CC[C@@H](C)[C@H](N=C(O)[C@H](CO)N=C(O)C(CC(C)C)N=C(O)[C@H](CCSC)N=C(O)[C@@H]1CCCN1C(=O)[C@H](CC(C)C)N=C(O)CN=C(O)[C@H](N)Cc1ccccc1)C(O)=N[C@H](CC(C)C)C(=O)N1CCCC1C(O)=N[C@H](CCCCN)C(O)=N[C@H](C)C(O)=N[C@H](CC(C)C)C(O)=N[C@H](CS)C(O)=N[C@H](C(O)=N[C@H](CC(C)C)C(O)=N[C@H](CC(C)C)C(O)=N[C@H](CCCCN)C(O)=N[C@H](CCCNC(=N)N)C(O)=N[C@H](CCCCN)C(O)=N[C@H](CS)C(=O)O)[C@H](C)CC (some centres undefined) [FGLPMLSILPKALCILLKRKC]
MIC [1]: 12 µM (≈ 28.3 µg/mL) | MIC [2]: 20 µM (≈ 47.2 µg/mL)

SMILES: CC(C)C[C@H](NC(=O)[C@H](CC(C)C)NC(=O)[C@H](CCCCN)NC(=O)CNC(=O)[C@H](CC(C)C)NC(=O)[C@H](C)NC(=O)[C@H](CCCCN)NC(=O)[C@H](CC(C)C)NC(=O)[C@H](C)NC(=O)[C@H](CO)NC(=O)[C@H](CC(C)C)NC(=O)[C@H](CC(C)C)NC(=O)CN)C(N)=O [GLLSALKALGKLL]
MIC [10]: 3.1 µM (≈ 4.02 µg/mL) | MIC [11]: > 25 µM | MIC [12]: 1.56 µM (≈ 2.02 µg/mL) | MIC [1]: 3.1 µM (≈ 4.02 µg/mL)

SMILES: CC[C@H](C)[C@H](NC(=O)CN)C(=O)N[C@@H](Cc1ccccc1)C(=O)N[C@H](C(=O)N[C@@H](CCCCN)C(=O)N[C@H](C(=O)N[C@@H](CC(N)=O)C(=O)N[C@@H](CCCCN)C(=O)N[C@@H](CCCCN)C(=O)N[C@@H](CCCCN)C(=O)N[C@@H](C)C(=O)N[C@@H](CCCCN)C(=O)N[C@H](C(=O)NCC(=O)N[C@H](C(=O)N[C@@H](Cc1ccccc1)C(=O)N[C@@H](CC(N)=O)C(=O)N[C@H](C(=O)N[C@H](C(=O)N[C@@H](CCCCN)C(=O)N[C@H](C(=O)N[C@H](C(=O)NCC(=O)N[C@@H](CCCCN)C(=O)N[C@@H](CCC(=O)O)C(=O)N[C@@H](C)C(=O)NCC(=O)N[C@@H](CCSC)C(=O)N[C@@H](CC(=O)O)C(=O)N[C@H](C(=O)N[C@H](C(=O)N[C@@H](CCCN=C(N)N)C(=O)N[C@@H](C)C(=O)NCC(=O)N[C@H](C(=O)N[C@@H](CC(=O)O)C(=O)N[C@H](C(=O)N[C@H](C(=O)N[C@@H](CO)C(=O)N[C@H]1CSSC[C@@H](C(=O)O)NC(=O)[C@H](CCC(=O)O)NC(=O)CNC(=O)[C@H](CCCCN)NC(=O)[C@H]([C@@H](C)CC)NC(=O)[C@H](CCCCN)NC1=O)[C@@H](C)CC)[C@@H](C)O)[C@@H](C)CC)[C@@H](C)CC)C(C)C)[C@@H](C)CC)[C@@H](C)O)[C@@H](C)CC)[C@@H](C)CC)C(C)C)[C@@H](C)O)[C@@H](C)CC)[C@@H](C)O [GIFTKINKKKAKTGVFNIIKTIGKEAGMDVIRAGIDTISCKIKGEC]
MIC [1]: 1 µM (≈ 4.94 µg/mL) | MIC [2]: 15 µM (≈ 74.1 µg/mL)

SMILES: CC[C@H](C)[C@H](NC(=O)[C@H](C)NC(=O)[C@@H]1CCCN1C(=O)[C@H](CC(C)C)NC(=O)[C@@H](N)Cc1ccccc1)C(=O)N[C@H](C(=O)NCC(=O)N[C@@H](C)C(=O)N[C@@H](C)C(=O)N[C@@H](C)C(=O)N[C@@H](CCCCN)C(=O)N[C@@H](Cc1ccccc1)C(=O)N[C@@H](CC(C)C)C(=O)N1CCC[C@H]1C(=O)N[C@@H](CCCCN)C(=O)N[C@H](C(=O)N[C@@H](Cc1ccccc1)C(=O)N[C@H]1CSSC[C@@H](C(=O)O)NC(=O)[C@H](CCCCN)NC(=O)[C@H](CCCCN)NC(=O)[C@H](CO)NC(=O)[C@H]([C@@H](C)CC)NC(=O)[C@H](C(C)C)NC1=O)[C@@H](C)CC)C(C)C [FLPAIVGAAAKFLPKIFCVISKKC]
MIC [1]: 15 µM (≈ 38.4 µg/mL) | MIC [2]: 3 µM (≈ 7.69 µg/mL)

SMILES: CC[C@H](C)[C@H](NC(=O)CNC(=O)[C@H](CCC(N)=O)NC(=O)[C@H](CC(C)C)NC(=O)[C@H](CC(N)=O)NC(=O)[C@H](CC(C)C)NC(=O)[C@H](Cc1ccccc1)NC(=O)CNC(=O)[C@H](Cc1cnc[nH]1)NC(=O)[C@H](CCCCN)NC(=O)[C@@H](N)CCCN=C(N)N)C(=O)N[C@@H](Cc1ccccc1)C(=O)NCC(=O)N[C@@H](CC(=O)O)C(=O)N[C@@H](Cc1ccc(O)cc1)C(=O)N[C@@H](Cc1ccc(O)cc1)C(=O)N[C@@H](Cc1cnc[nH]1)C(=O)N[C@@H](Cc1ccccc1)C(=O)N[C@@H](Cc1c[nH]c2ccccc12)C(=O)N[C@@H](Cc1cnc[nH]1)C(=O)N[C@@H](CCCN=C(N)N)C(=O)NCC(=O)N[C@H](C(=O)O)C(C)C [RKHGFLNLQGIFGDYYHFWHRGV]
MIC [10]: ≥ 100 µM | MIC [14]: 4 µM (≈ 11.4 µg/mL) | MIC [15]: > 100 µM | MIC [16]: > 100 µM | MIC [5]: > 100 µM | MIC [8]: > 100 µM | MIC [17]: ≥ 100 µM | MIC [18]: ≥ 100 µM

SMILES: CC[C@H](C)[C@@H]1NC(=O)[C@H](C)NC(=O)[C@@H](NC(=O)[C@H](Cc2ccccc2)NC(=O)[C@@H](NC(=O)[C@H](CCCCN)NC(=O)[C@@H]2CCCN2C(=O)[C@H](CC(C)C)NC(=O)[C@H](Cc2ccccc2)NC(=O)[C@H](CC(N)=O)NC(=O)[C@H](C)NC(=O)[C@H](C)NC(=O)[C@H](CCSC)NC(=O)CNC(=O)[C@H](C)NC(=O)[C@@H](NC(=O)[C@H](Cc2ccccc2)NC(=O)[C@@H]2CCCN2C(=O)[C@H](CC(C)C)NC(=O)[C@@H](N)Cc2ccccc2)[C@@H](C)CC)[C@@H](C)CC)CSSC[C@@H](C(=O)O)NC(=O)[C@H](CCCCN)NC(=O)[C@H](CCCCN)NC(=O)[C@H](CO)NC1=O [FLPFIAGMAANFLPKIFCAISKKC]
MIC [1]: 19 µM (≈ 50 µg/mL) | MIC [2]: 8 µM (≈ 21 µg/mL)

The next lines start with the values.

MIC [3]: 2.5 µM (≈ 3.96 µg/mL) | MIC [4]: ≥ 202 µM | MIC [5]: 1.25 µM (≈ 1.98 µg/mL) | MIC [6]: ≥ 202 µM | MIC [7]: ≥ 101 µM | MIC [8]: ≥ 202 µM | MIC [1]: 1.25 µM (≈ 1.98 µg/mL) | MIC [9]: 2.5 µM (≈ 3.96 µg/mL)
SMILES: CC[C@H](C)[C@H](NC(=O)[C@H](CCCN=C(N)N)NC(=O)[C@H](CCCCN)NC(=O)[C@@H](NC(=O)[C@@H](NC(=O)[C@H](CCCN=C(N)N)NC(=O)[C@@H](N)CCCCN)[C@@H](C)CC)C(C)C)C(=O)N[C@@H](CCCCN)C(=O)N[C@@H](CCCCN)C(=O)N[C@@H](Cc1ccccc1)C(=O)N[C@@H](CC(C)C)C(=O)N[C@@H](CCCN=C(N)N)C(=O)O [KRIVKRIKKFLR]

MIC [13]: ≥ 1000 µM
SMILES: CC[C@H](C)[C@H](NC(=O)[C@H](CC(N)=O)NC(=O)[C@H](CC(N)=O)NC(=O)CNC(=O)[C@H](CCC(=O)O)NC(=O)[C@H](CC(N)=O)NC(=O)[C@H](CCC(=O)O)NC(=O)[C@H](CCC(N)=O)NC(=O)[C@H](CCC(=O)O)NC(=O)[C@H](CCC(=O)O)NC(=O)[C@@H](N)CCCCN)C(=O)N[C@@H](Cc1ccccc1)C(=O)N[C@H](C(=O)N[C@@H](CC(N)=O)C(=O)N[C@@H](CCCN=C(N)N)C(=O)N[C@@H](Cc1cnc[nH]1)C(=O)N[C@H](C(=O)N[C@H](C(=O)N[C@@H](CC(=O)O)C(=O)N[C@@H](CCCCN)C(=O)N[C@@H](CC(C)C)C(=O)O)C(C)C)[C@@H](C)CC)C(C)C [KEEQENEGNNIFVNRHIVDKL]

MIC [2]: 15 µM (≈ 20.7 µg/mL)
SMILES: CC[C@H](C)[C@H](NC(=O)[C@@H](NC(=O)[C@@H]1CCCN1C(=O)[C@H](CC(C)C)NC(=O)[C@@H](N)Cc1ccccc1)[C@@H](C)CC)C(=O)N[C@@H](C)C(=O)N[C@@H](CCCCN)C(=O)N[C@H](C(=O)N[C@@H](CC(C)C)C(=O)N[C@@H](CO)C(=O)NCC(=O)N[C@@H](CC(C)C)C(=O)N[C@@H](CC(C)C)C(N)=O)C(C)C [FLPIIAKVLSGLL]

MIC [2]: 12 µM (≈ 19.3 µg/mL)
SMILES: CC[C@H](C)[C@H](NC(=O)[C@H](CC(C)C)NC(=O)[C@@H]1CCCN1C(=O)[C@H](CC(C)C)NC(=O)[C@@H](NC(=O)[C@@H](N)Cc1ccccc1)[C@@H](C)CC)C(=O)N[C@@H](C)C(=O)N[C@@H](CO)C(=O)N[C@@H](Cc1ccccc1)C(=O)N[C@@H](CC(C)C)C(=O)N[C@@H](CO)C(=O)N[C@@H](CCCCN)C(=O)N[C@@H](Cc1ccccc1)C(=O)N[C@@H](CC(C)C)C(N)=O [FILPLIASFLSKFL]

MIC [1]: 25 µM (≈ 57.4 µg/mL) | MIC [9]: ≥ 100 µM | MIC [2]: ≥ 50 µM
SMILES: CC[C@H](C)[C@H](NC(=O)[C@H](CC(C)C)NC(=O)[C@H](CCCCN)NC(=O)[C@H](CO)NC(=O)[C@@H](NC(=O)[C@H](C)NC(=O)[C@H](CCCCN)NC(=O)[C@@H](NC(=O)[C@H](C)NC(=O)[C@H](Cc1cnc[nH]1)NC(=O)[C@@H]1CCCN1C(=O)[C@@H](NC(=O)[C@H](CC(C)C)NC(=O)[C@@H]1CCCN1C(=O)CNC(=O)[C@@H](NC(=O)[C@H](Cc1ccc(O)cc1)NC(=O)[C@H](CCCCN)NC(=O)[C@H](CCSC)NC(=O)[C@H](Cc1ccccc1)NC(=O)CN)[C@@H](C)CC)[C@@H](C)CC)C(C)C)[C@@H](C)CC)C(=O)O [GFMKYIGPLIPHAVKAISKLI]
